Measurements published in patent US20250057913A1, “USE OF SOMATOSTATIN AGONIST IN THE TREATMENT OF SSTR3 EXPRESSING TUMORS” (ITALFARMACO SPA, priority 2021, published 2025).
*1 amine or outer side, *2 acyl side, *3 side chain or, on linkers, in order; H or OH if unused. Where a SMILES comes first, the peptide text is derived from it. Side-chain parts run from the residue outwards. [ ]: non-standard residue; d: D form. The star is where a group is joined. Ethylenediamine = C(CN[*:2])N[*:1]; Hyp = O=C(O)[C@@H]1C[C@@H](O)CN1; Phg = N[C@H](C(=O)O)c1ccccc1; CO = O=C([*:1])[*:2]; Bn = c1ccc(C*)cc1

Tests used:
NT-3 cell line spheroids = experiment: Cytotoxic activity on NT-3 cell line spheroids; assay type: cell-based, human; conditions: 2.56 μM, 18 days
Description: NT-3 well-differentiated pancreatic neuroendocrine (PanNET) cell line (32) is an in-vitro model for pancreatic tumours.
Said cells were cultured in RPMI 1640 Medium GlutaMAX™ with 10% FBS, 1% Penicillin/Streptomycin, 20ng/ml EGF (AF-100-15, Peprotech), 10 ng/ml FGF (100-18B, Peprotech).
3D spheroids were generated by seeding 2000 cells/well in a 96-well ULA plate (Corning). Four replicates for each condition were seeded.
The spheroid formation required 4 days before starting the treatment.
The treatment was repeated every 3 days by replacing 50% of the medium (to avoid spheroid removal) with new medium containing 2× desired drug concentration.
Spheroid morphology was monitored every day during the treatment and pictures were taken on day 0, 4, 7, 11, 14, 18. Day 0 corresponds to the first day of treatment. Pictures were taken from the same well every time point.

SSTR2 [1] = molecular target: T1, SSTR2 (Homo sapiens, UniProt P30874); experiment: SSTR2 phosphorylation in HEK293 transfected cells (phosphosite-specific antibodies); assay type: cell-based; design: expressed in transfected cells; conditions: 10 or 1 μM, 10 min at 37° C.
T1 sequence (P30874 whole entry): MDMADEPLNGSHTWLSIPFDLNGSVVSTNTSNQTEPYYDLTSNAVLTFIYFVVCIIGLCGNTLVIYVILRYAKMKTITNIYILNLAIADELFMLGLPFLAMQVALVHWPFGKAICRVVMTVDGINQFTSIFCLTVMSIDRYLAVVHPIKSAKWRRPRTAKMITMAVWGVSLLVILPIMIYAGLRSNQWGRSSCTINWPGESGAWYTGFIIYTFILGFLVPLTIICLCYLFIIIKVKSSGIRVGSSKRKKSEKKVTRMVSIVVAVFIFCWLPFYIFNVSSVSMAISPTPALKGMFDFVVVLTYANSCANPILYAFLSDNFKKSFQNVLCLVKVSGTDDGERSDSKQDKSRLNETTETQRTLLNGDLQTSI
Description: (A) Schematic representation of the human SSTR2 receptor indicating all potential phosphate acceptor sites within the carboxyl-terminal tail. Epitopes of the phosphosite-specific antibodies are marked (-P). […] The levels of phosphorylated SSTR2 receptor were then determined using the phosphosite-specific anti-pS341/pS343, pT353/T354, pT356/T359 antibodies. […] Blots shown are representative of three independent experiments. The positions of molecular mass markers are indicated on the left (in kDa).

SSTR2-tGFP = SSTR2-tGFP (Homo sapiens, UniProt P30874); experiment: Internalization of SSTR2 in U2OS transfected cells; assay type: cell-based; design: expressed in transfected cells; host or cells: U2OS
Sequence of SSTR2-tGFP (P30874 whole entry): as above
Source text: (§1) HEK293 cells transfected with human SSTRs, and U20S cells transfected with human GFP-tagged receptors (SSTR2-tGFP, SSTR3-tGFP, SSTR5-tGFP).

SSTR3-tGFP = SSTR3-tGFP (Homo sapiens, UniProt P32745); experiment: Internalization of SSTR3 in U2OS transfected cells; assay type: cell-based; design: expressed in transfected cells; host or cells: U2OS
Sequence of SSTR3-tGFP (P32745 whole entry): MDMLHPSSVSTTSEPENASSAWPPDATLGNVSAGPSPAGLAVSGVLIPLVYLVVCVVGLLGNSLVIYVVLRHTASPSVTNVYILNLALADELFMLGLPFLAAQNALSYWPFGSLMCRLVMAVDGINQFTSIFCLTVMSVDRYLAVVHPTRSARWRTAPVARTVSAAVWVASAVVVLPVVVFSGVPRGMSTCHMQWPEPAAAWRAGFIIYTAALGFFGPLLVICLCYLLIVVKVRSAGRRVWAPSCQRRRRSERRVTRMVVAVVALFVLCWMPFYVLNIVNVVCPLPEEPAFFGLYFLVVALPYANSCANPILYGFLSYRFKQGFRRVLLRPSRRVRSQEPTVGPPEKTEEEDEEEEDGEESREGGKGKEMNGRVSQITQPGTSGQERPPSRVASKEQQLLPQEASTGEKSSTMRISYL
Source text: as §1

SSTR3 [2] = molecular target: T2, SSTR3 (Homo sapiens, UniProt P32745); experiment: SSTR3 phosphorylation in HEK293 transfected cells (phosphosite-specific antibodies); assay type: cell-based; design: expressed in transfected cells; conditions: 10^−12 to 10^−5 M, 10 min at 37° C.
T2 sequence (P32745 whole entry): as above
Description: The levels of phosphorylated SST3 receptor were then determined using the phosphosite-specific anti-pS337/pT341 or anti-pT348.
(§2) Finally, the SSTR5 pT333 phosphosite was only partially affected by all tested compounds, with Pasireotide showing the most pronounced effect (FIG. 9B, C).

SSTR3 [3] = molecular target: T2, SSTR3; experiment: GIRK-based fluorescence membrane potential assay, HEK293-GIRK2-GFP-HA-hSST3
Source text: The concentrations used are indicated. […] Data points represent mean±S.E.M.
(§3) Therefore, G protein-signaling mediated by SSTR agonists was studied using a GIRK-based fluorescence membrane potential assay both in HEK293 cells transfected with hSSTR3, and in AtT20 wild-type as well as hSSTR3-transfected cells.

[4] = test system: NFPAs in MENX (homozygous mutant) rats; conditions: female and male rats; cited from earlier work
SSTR5 [5] = molecular target: T3, SSTR5 (Homo sapiens, UniProt P35346); experiment: SSTR5 phosphorylation in HEK293 transfected cells (anti-pT333); assay type: cell-based; design: expressed in transfected cells; conditions: 10 min at 37° C.
T3 sequence (P35346 whole entry): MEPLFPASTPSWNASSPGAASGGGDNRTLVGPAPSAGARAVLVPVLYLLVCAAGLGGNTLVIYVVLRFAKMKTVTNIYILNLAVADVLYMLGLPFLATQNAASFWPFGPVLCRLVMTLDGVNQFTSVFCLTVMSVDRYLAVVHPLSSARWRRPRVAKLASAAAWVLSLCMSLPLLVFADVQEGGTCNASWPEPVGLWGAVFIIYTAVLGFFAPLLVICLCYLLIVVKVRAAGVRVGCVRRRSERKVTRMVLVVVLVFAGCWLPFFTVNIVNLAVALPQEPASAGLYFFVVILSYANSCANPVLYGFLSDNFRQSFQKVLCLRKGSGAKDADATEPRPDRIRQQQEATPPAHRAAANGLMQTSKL
Source text: FIG. 9—Agonist-selective SSTR5 phosphorylation in HEK293 transfected cells. (A) Schematic representation of the human SSTR5 receptor indicating all potential phosphate acceptor site within the carboxyl-terminal tail. Epitope of the phosphosite-specific antibodies are marked (-P) . . . […] (C) Blots were subsequently stripped and reprobed with anti-HA antibody to confirm equal loading of the gels. Blots shown are representative of three independent experiments. The positions of molecular mass markers are indicated on the left (in kDa).
as §2

SSTR2 [6] = molecular target: T1, SSTR2; experiment: cell-based; design: expressed in transfected cells; host or cells: HEK293 co-expressing GIRK2-GFP
Source text: as §3

[7] = test system: Clinically Non-Functioning Pituitary Adenoma; conditions: Pasireotide LAR, NFPA patients; cited from earlier work
SSTR5-tGFP = SSTR5-tGFP (Homo sapiens, UniProt P35346); experiment: Internalization of SSTR5 in U2OS transfected cells; assay type: cell-based; design: expressed in transfected cells; host or cells: U2OS
Sequence of SSTR5-tGFP (P35346 whole entry): as above
Source text: as §1

opioid receptors = experiment: single dose binding assays on opioid receptors; conditions: single dose 10^−5 M
SSTR5 [8] = molecular target: T3, SSTR5
Source text: as §3

[9] = molecular target: wild-type hSSTR2 stably expressed in HEK293 cells (human) (UniProt P30874)
[10] = molecular target: wild-type hSSTR5 stably expressed in HEK293 cells (human) (UniProt P35346)
[11] = molecular target: wild-type hSSTR3 stably expressed in HEK293 cells (human) (UniProt P32745)

Compound | spheroid morphology at the highest concentration (NT-3 cell line spheroids) | phosphorylation of SSTR2 (pS341/pS343, pT353/T354, pT356/T359) (SSTR2 [1]) | Mean of internalized fluorescence, SSTR2 (SSTR2-tGFP; 1 μM) [AU] | Mean of internalized fluorescence, SSTR2 (SSTR2-tGFP; 10 μM) [AU] | Mean of internalized fluorescence, SSTR3 (SSTR3-tGFP; 1 μM) [AU] | Mean of internalized fluorescence, SSTR3 (SSTR3-tGFP; 10 μM) [AU] | Compound activity (EC50 nM), GIRK membrane potential assay [9] [nM] | further results
C[C@@H](O)[C@@H]1NC(=O)[C@H](CCCCN)NC(=O)[C@@H](Cc2c[nH]c3ccccc23)NC(=O)[C@H](Cc2ccccc2)NC(=O)[C@@H](NC(=O)[C@H](N)Cc2ccccc2)CSSC[C@@H](C(=O)N[C@H](CO)[C@@H](C)O)NC1=O [Octreotide] | still maintain their morphology | full phosphorylation of SSTR2 | 74.1 | 81.0 | 43.4 | 55.2 | – | rank as SSTR2-tGFP internalization inducer (SSTR2-tGFP): most potent internalization inducer
NCCCC[C@@H]1NC(=O)[C@@H](Cc2c[nH]c3ccccc23)NC(=O)[C@H](c2ccccc2)NC(=O)[C@@H]2C[C@@H](OC(=O)NCCN)CN2C(=O)[C@H](Cc2ccccc2)NC(=O)[C@H](Cc2ccc(OCc3ccccc3)cc2)NC1=O [Pasireotide, reference compound] (cyclo([Hyp]([CO-Ethylenediamine])[Phg][dW]KY(Bn)F)) | still maintain their morphology | selective phosphorylation of S341/S343 | 49.2 | 50.5 | 41.6 | 46.3 | – | phosphorylation of SSTR3 (pS337/pT341, pT348) (SSTR3 [2]): weak effect; EC50 (SSTR3 [3]): 0.063 ± 0.0075 µM; antitumor activity in the MENX model (published report) [4]: higher antitumor activity than Octreotide; phosphorylation of SSTR5 (pT333) (SSTR5 [5]): more potent than ITF2984 and octreotide; EC50 (SSTR2 [6]): 0.06 ± 0.0163 µM; patients reaching a tumor size reduction at least 20% [7]: 16.7%; Mean of internalized fluorescence, SSTR5 (SSTR5-tGFP; 1 μM): 40.5 AU; Mean of internalized fluorescence, SSTR5 (SSTR5-tGFP; 10 μM): 43.9 AU; replacement of agonists (opioid receptors): fully replace agonists; EC50 (SSTR5 [8]): 0.0165 ± 0.0025 µM
Octreotide (peptide) | – | – | – | – | – | – | 4 | –
Pasireotide (peptide) | – | – | – | – | – | – | 60 | Compound activity (EC50 nM), GIRK membrane potential assay [10]: 16.5 nM; Compound activity (EC50 nM), GIRK membrane potential assay [11]: 63 nM
